This note sets out measurements from ChEMBL document CHEMBL4828759, “Targeted methylation facilitates DNA double strand breaks and enhances cancer suppression: A DNA intercalating/methylating dual-action chimera Amonafidazene” (Eur J Med Chem, 2021).

The subject of series [1] is DNA. Description: Induction of DNA methylation in human HCT-116 cells assessed as reduction of MGMT expression at 200 uM measured after 48 hrs by Western blot assay relative to control. The format is functional, cell-based. Further details: scale not given: the % may be the effect or the level left. For orientation: In western blotting, separated proteins are transferred to a membrane and probed.

Series [2] has as its system A 172. Description: Cytotoxicity against human A 172 cells assessed as cell viability measured after 96 hrs by XTT assay. Type of series: functional, cell-based. The settings on record: A 172, 96 h. (Tetrazolium assays rely on reduction of a dye to a coloured formazan, in cell work by metabolically active cells.)
In series [3] the test system is MDA-MB-238. Description: Inhibition of DNA Topoisomerase-2 in human […] cells assessed as generation of DNA double strand breaks measuring gamma-H2AX at incubated for 24 hrs followed by drug washout and measured after 24 to 96 hrs by immunofluorescence assay. Type of series: cell-based.
In series [4] the test system is NCI-H1299. Put plainly: Cytotoxicity against human NCI-H1299 cells assessed as cell viability measured after 96 hrs by XTT assay. The format is functional, cell-based. The settings on record: NCI-H1299, 96 h.
For series [5], the system named is DNA. Description: Induction of DNA methylation in human HCT-116 cells assessed as reduction of MGMT expression at 400 uM measured after 48 hrs by Western blot assay relative to control. Type of series: functional, cell-based. Further details: scale not given: the % may be the effect or the level left.
The test system of series [6] is WM 266-4. Put plainly: Cytotoxicity against human WM 266-4 cells assessed as cell viability measured after 96 hrs by XTT assay. The conditions noted are these: WM 266-4, 96 h. The format is functional, cell-based.
In series [7] the test system is MDA-MB-238. Description: Cytotoxicity against human […] cells assessed as cell viability measured after 96 hrs by XTT assay. Type of series: functional, cell-based.
Series [8] has as its system MDA-MB-238. Put plainly: Inhibition of DNA Topoisomerase-2 in human […] cells assessed as generation of DNA double strand breaks measuring gamma-H2AX at 2 uM incubated for 24 hrs followed by drug washout and measured after 96 hrs by immunofluorescence assay. Type of series: cell-based.
The nature of series [9]: Drug metabolism in human MDA-MB-231 cells assessed as increase of free amonafide in cell at 25 uM measured after 2 hrs by fluorescence based microscopic assay. Type of series: ADME. The conditions noted are these: mda-mb-231, 2 h.
The subject of series [10] is MDA-MB-238. Description: Antitumour activity against human […] cells xenografted in athymic nude-Foxn 1nu mouse assessed as inhibition of tumour growth at 3.8 mg/kg, ip measured after 5 weeks. Type of series: functional, organism-based. (In general: In xenograft studies the graft and the host belong to different species.)
In series [11] the test system is MDA-MB-238. Put plainly: Antitumour activity against human […] cells xenografted in athymic nude-Foxn 1nu mouse assessed as inhibition of tumour growth at 1.9 mg/kg, ip measured after 5 weeks. Type of series: functional, organism-based.
The subject of series [12] is MDA-MB-238. Put plainly: Inhibition of DNA Topoisomerase-2 in human […] cells assessed as generation of DNA double strand breaks by measuring gamma-H2AX at 2 uM incubated for 24 hrs followed by drug washout and measured after 24 hrs by immunofluorescence assay. Type of series: cell-based.
Series [13] is described as follows: Drug metabolism in human MDA-MB-231 cells xenografted in athymic Balb/c mouse assessed as increase of free amonafide in tumor at 10 mg/kg, ip measured after 120 hrs by fluorescence based microscopic assay. The conditions noted are these: in vivo. The format is ADME, organism-based.

Active and inactive are the calls of the source. The calls are words filed in the database; no cut-off is given here.

As usually defined, the IC50 is the concentration that gives 50% inhibition. With `Cn1nnc2c(C(N)=O)ncn2c1=O` [TEMOZOLOMIDE], the results for the Activity in series [1] and in series [5] were 93% and 57%, respectively. Moreover, the IC50 in series [2] was > 40 µM; in [4], > 100 µM; in series [6], > 100 µM; in series [7], > 100 µM. Also, the inhibition entry in series [3] was “inactive”.
In the case of `COC(=O)N(C)/N=N/c1ccc(CO)cc1`, the values for the Activity in [1] and in [5] were 75% and 48%, respectively. Besides, the half-maximal inhibitory concentration (IC50) in [2] is > 40 µM; in [4] it was > 100 µM; in series [6], > 100 µM; in series [7], > 100 µM.
For the compound `COC(=O)N(C)/N=N/c1ccc(COC(=O)Nc2cc3c4c(cccc4c2)C(=O)N(CCN(C)C)C3=O)cc1`, the half-maximal inhibitory concentration (IC50) in [2] came out at 2.73 µM; in series [4], 1.79 µM; in series [6] it was 3.79 µM; in series [7] it was 3.02 µM. Moreover, the inhibition entry in [8] and in [12] was “Active” throughout. Besides, the Drug metabolism result in series [9] and in series [13] was “Metabolite_Detected” throughout. For the same compound, the result in series [10] and in [11] was Active.
On to `COC(=O)N(C)/N=N/c1ccc(COC(=O)Nc2ccc3c4c(cccc24)C(=O)N(CCN(C)C)C3=O)cc1`, for which the IC50 in [2] is 7.46 µM; in [4], 3.61 µM; in [6] it was 4.86 µM; in series [7], 6.26 µM.
In the case of `CN(C)CCN1C(=O)c2cccc3cc(N)cc(c23)C1=O` [AMONAFIDE], the IC50 was found to be 23.8 µM in [2], 8.84 µM in series [4], 6.92 µM in series [6] and 24.2 µM in [7]. Besides, the inhibition entry in [8] and in series [12] was “Active” in each case. The outcome in series [11] was Active.
